Measured values: patent US5141953A, “Purpuromycin for the treatment of vaginal infections and pharmaceutical dosage forms for said use” (Gruppo Lepetit S.p.A., priority 1989, dated 1992)
Values after ≈ are worked out from the molar mass of the structure shown. Read-outs that look alike come from different tables or passages of the source.

Experiments:
Gardnerella vaginalis [1] = details: cited from earlier work
Candida albicans = details: cited from earlier work
Gardnerella vaginalis [2] = test: MIC against Gardnerella vaginalis (ATCC 14018 and 11 clinical isolates), standard two-fold dilution; type: cell-based; details: for NUMBER OF STRAINS WITH MIC OF 8: MIC 8 mcg/ml; for NUMBER OF STRAINS WITH MIC OF 16: MIC 16 mcg/ml; for NUMBER OF STRAINS WITH MIC OF 32: MIC 32 mcg/ml; for NUMBER OF STRAINS WITH MIC OF 64: MIC 64 mcg/ml; for NUMBER OF STRAINS WITH MIC OF 4: MIC 4 mcg/ml
Description: The strains were grown on Casman medium (Difco) plus 5% (v/v) whole rabbit blood and 0.15 (v/v) lysed rabbit blood. Inoculum size: approximately 10^4 colony forming units per spot. Incubation in an anaerobic hood: 48 hours at 37° C.

Trichomonas vaginalis = details: cited from earlier work
yeasts = details: cited from earlier work
[3] = tested on: Candida albicans strain SKF 2270; test: Topical treatment of yeast vaginal infection in ovariectomized rats; type: in vivo, rat; details: topical intravaginal; for Mean log10 CFU/smear sample ± SD: twice daily for three days, untreated 3.43 ± 0.55, vehicle 3.74 ± 0.60
Description: The effectiveness of purpuromycin in the topical treatment of yeast vaginal infection was also tested in ovariectomized rats (Charles River) treated subcutaneously with 4 mg of estradiol benzoate approximately two weeks after ovariectomy. Five days later they were inoculated intravaginally with approximately 5×10^6 colony forming units (CFU) of Candida albicans strain SKF 2270 in 25 microliters of Nutrient Broth (no.2, Oxoid) containing 15% (vol/vol) of glycerol. Topical intravaginal therapy was twice daily for three days, starting one day after infection, with 100 microliters of a purpuromycin suspension in a mixture of 10:90 DMSO-polyethylene glycol 400, corresponding to 2 or 5 mg/rat/treatment. The day after the last treatment, vaginal smear samples (calibrated 10 microliter loops) were diluted and plated for viable organism counts on Sabouraud agar (Difco). Each group contained 10 animals.

[4] = tested on: Bacteroides fragilis ATCC 23745; test: MIC against Bacteroides fragilis, two-fold dilution method; type: cell-based; details: ATCC23745, anaerobic, 48 hours at 37° C., Wilkins-Chalgren broth, approximately 10^4 CFU/ml
Description: A further experiment representative of the activity of purpuromycin against other anaerobic bacteria which are usually associated with infectious vaginitis utilized Bacteroides fragilis ATCC […] as the test microorganism. The experiment was carried out by the two-fold dilution method in microliter plates using Wilkins-Chalgren broth (Difco).
Inoculum size: approximately 10^4 colony forming units/ml. Incubation in an anerobic hood: 48 hours at 37° C. Purpuromycin was dissolved in DMSO and was added to the culture medium as above.

Solubility = type: physicochemical
Gram-positive bacteria = details: in vitro; cited from earlier work
Gram-negative bacteria = details: in vitro; cited from earlier work
[5] = tested on: fungi, including filamentous fungi (e.g., Trichophyton mentagrophytes) and yeasts e.g., Candida albicans; details: in vitro; cited from earlier work
[6] = 12 strains tested, anaerobic, 48 hours at 37° C.
[7] = MIC >128 mcg/ml, 12 strains tested, anaerobic, 48 hours at 37° C.

CC1(C)S[C@@H]2[C@H](NC(=O)Cc3ccccc3)C(=O)N2[C@H]1C(=O)O [penicillin G]
activity against Gardnerella vaginalis (Gardnerella vaginalis [1]): active

OC(Cn1cncn1)(Cn1cncn1)c1ccc(F)cc1F [fluconazole]
effectiveness against Candida albicans infections (Candida albicans): effective

C[C@@H]1[C@H](O)[C@@H](C)/C=C/C=C/CC/C=C/C=C/C=C/C=C/C(O[C@H]2O[C@H](C)[C@@H](O)[C@H](N)[C@@H]2O)CC2O[C@](O)(CC(O)C(O)CCC(O)CC(O)CC(O)CC(=O)O[C@H]1C)CC(O)C2C(=O)O (some centres unmarked) [Nystatin]
NUMBER OF STRAINS WITH MIC OF >128 (Gardnerella vaginalis [2]): 12 strains
effectiveness against Candida albicans infections (Candida albicans): effective

Clc1ccccc1C(c1ccccc1)(c1ccccc1)n1ccnc1 [Clotrimazole]
NUMBER OF STRAINS WITH MIC OF 8 (Gardnerella vaginalis [2]; [6]): 2 strains
NUMBER OF STRAINS WITH MIC OF 16 (Gardnerella vaginalis [2]; [6]): 1 strains
NUMBER OF STRAINS WITH MIC OF 32 (Gardnerella vaginalis [2]; [6]): 2 strains
NUMBER OF STRAINS WITH MIC OF 64 (Gardnerella vaginalis [2]; [6]): 5 strains
NUMBER OF STRAINS WITH MIC OF >128 (Gardnerella vaginalis [2]; [7]): 2 strains
effectiveness against Candida albicans infections (Candida albicans): effective

CCC[C@@H]1C[C@@H](C(=O)N[C@@H]([C@H]2O[C@H](SC)[C@H](O)[C@@H](O)[C@H]2O)[C@H](C)Cl)N(C)C1 [clindamycin]
activity against Gardnerella vaginalis (Gardnerella vaginalis [1]): active

CC1(C)S[C@@H]2[C@H](NC(=O)[C@H](N)c3ccccc3)C(=O)N2[C@H]1C(=O)O [ampicillin]
activity against Gardnerella vaginalis (Gardnerella vaginalis [1]): active

CC1=C(C(=O)O)N2C(=O)[C@@H](NC(=O)[C@H](N)c3ccccc3)[C@H]2SC1 [cefalexin]
activity against Gardnerella vaginalis (Gardnerella vaginalis [1]): active

candicidin
effectiveness against Candida albicans infections (Candida albicans): effective

CC(=O)N1CCN(c2ccc(OCC3COC(Cn4ccnc4)(c4ccc(Cl)cc4Cl)O3)cc2)CC1 (centres unmarked) [Ketoconazole]
effectiveness against Candida albicans infections (Candida albicans): effective

Clc1ccc(COC(Cn2ccnc2)c2ccc(Cl)cc2Cl)cc1 (centres unmarked) [econozole]
effectiveness against Candida albicans infections (Candida albicans): effective

Cc1ncc([N+](=O)[O-])n1CCO [Metronidazole]
NUMBER OF STRAINS WITH MIC OF 4 (Gardnerella vaginalis [2]; [6]): 1 strains
NUMBER OF STRAINS WITH MIC OF 8 (Gardnerella vaginalis [2]; [6]): 3 strains
NUMBER OF STRAINS WITH MIC OF 16 (Gardnerella vaginalis [2]; [6]): 4 strains
NUMBER OF STRAINS WITH MIC OF 64 (Gardnerella vaginalis [2]; [6]): 1 strains
NUMBER OF STRAINS WITH MIC OF 128 (Gardnerella vaginalis [2]; MIC 128 mcg/ml, 12 strains tested, anaerobic, 48 hours at 37° C.): 3 strains
activity against Trichomonas vaginalis (Trichomonas vaginalis): active
activity against Gardnerella vaginalis (Gardnerella vaginalis [1]): active
activity against yeasts (yeasts): not active

O=C(N[C@H](CO)[C@H](O)c1ccc([N+](=O)[O-])cc1)C(Cl)Cl [chloramphenicol]
activity against Gardnerella vaginalis (Gardnerella vaginalis [1]): active

Cc1cc(NS(=O)(=O)c2ccc(N)cc2)no1 [sulfamethoxazole]
activity against Gardnerella vaginalis (Gardnerella vaginalis [1]): active

COC(=O)c1cc2cc3c(c(O)c2c(=O)o1)OC1(Cc2c(O)c4c(c(O)c2O1)C(=O)C(OC)=CC4=O)CC3O (centres unmarked) [Purpuromycin]
MIC (Gardnerella vaginalis [2]; 48 h, all 12 Gardnerella vaginalis strains, read-out: concentration that inhibits the growth of all tested strains): 8 µg/mL (≈ 14.9 µM)
NUMBER OF STRAINS WITH MIC OF 8 (Gardnerella vaginalis [2]; [6]): 12 strains
activity on strains resistant to metronidazole, nystatin and miconozole (Gardnerella vaginalis [2]; resistant strains): active
Mean log10 CFU/smear sample ± SD ([3]; 2 mg/rat/treatment): 2.00 ± 0.75 log10 CFU/smear sample
Mean log10 CFU/smear sample ± SD ([3]; 5 mg/rat/treatment, *P <0.01 vs group 1 controls): 2.28 ± 0.78 log10 CFU/smear sample
numbers of viable yeast cells/sample ([3]; 2 or 5 mg/rat/treatment): significantly reduced
MIC [4]: 0.25 µg/mL (≈ 0.464 µM)
solubility in lower alkanols (Solubility; lower alkanols): practically unsoluble
solubility in water (Solubility; water): practically unsoluble
activity against Gram-positive bacteria (Gram-positive bacteria): active
activity against Gram-negative bacteria (Gram-negative bacteria): active
activity against fungi [5]: active

CO[C@@]1(NC(=O)Cc2cccs2)C(=O)N2C(C(=O)O)=C(COC(N)=O)CS[C@@H]21 [cefoxitin]
activity against Gardnerella vaginalis (Gardnerella vaginalis [1]): active

CN(C)c1ccc(C(=C2C=CC(=[N+](C)C)C=C2)c2ccc(N(C)C)cc2)cc1 [gentian violet]
effectiveness against Candida albicans infections (Candida albicans): effective

gentamicin
activity against Gardnerella vaginalis (Gardnerella vaginalis [1]): active

CC[C@H]1OC(=O)[C@H](C)[C@@H](O[C@H]2C[C@@](C)(OC)[C@@H](O)[C@H](C)O2)[C@H](C)[C@@H](O[C@@H]2O[C@H](C)C[C@H](N(C)C)[C@H]2O)[C@](C)(O)C[C@@H](C)C(=O)[C@H](C)[C@@H](O)[C@]1(C)O [erythromycin]
activity against Gardnerella vaginalis (Gardnerella vaginalis [1]): active

C[C@@H]1[C@H](O)[C@@H](C)/C=C/C=C/C=C/C=C/C=C/C=C/C=C/[C@H](O[C@@H]2O[C@H](C)[C@@H](O)[C@H](N)[C@@H]2O)C[C@@H]2O[C@](O)(C[C@@H](O)C[C@@H](O)[C@H](O)CC[C@@H](O)C[C@@H](O)CC(=O)O[C@H]1C)C[C@H](O)[C@H]2C(=O)O [Amphotericin B]
effectiveness against Candida albicans infections (Candida albicans): effective

CN[C@@H]1[C@H](O)[C@H](NC)[C@H]2O[C@@]3(O)C(=O)C[C@@H](C)O[C@H]3O[C@@H]2[C@H]1O [spectinomycin]
activity against Gardnerella vaginalis (Gardnerella vaginalis [1]): active

CCS(=O)(=O)CCn1c([N+](=O)[O-])cnc1C [tinidazole]
activity against Trichomonas vaginalis (Trichomonas vaginalis): active

Clc1ccc(COC(Cn2ccnc2)c2ccc(Cl)cc2Cl)c(Cl)c1 (centres unmarked) [Miconazole]
MIC (Gardnerella vaginalis [2]; Gardnerella vaginalis, strains resistant to the agent, read-out: MIC (on resistant strains)): 128 µg/mL (≈ 308 µM)
NUMBER OF STRAINS WITH MIC OF 4 (Gardnerella vaginalis [2]; [6]): 1 strains
NUMBER OF STRAINS WITH MIC OF 8 (Gardnerella vaginalis [2]; [6]): 7 strains
NUMBER OF STRAINS WITH MIC OF 32 (Gardnerella vaginalis [2]; [6]): 2 strains
NUMBER OF STRAINS WITH MIC OF >128 (Gardnerella vaginalis [2]; [7]): 2 strains
effectiveness against Candida albicans infections (Candida albicans): effective

O=C(Cc1cccs1)N[C@@H]1C(=O)N2C(C(=O)[O-])=C(C[n+]3ccccc3)CS[C@H]12 [cephaloridine]
activity against Gardnerella vaginalis (Gardnerella vaginalis [1]): active

CN(C)C1C(=O)C(C(N)=O)=C(O)C2(O)C(=O)C3=C(O)c4c(O)cccc4C(C)(O)C3CC12 (centres unmarked) [tetracycline]
activity against Gardnerella vaginalis (Gardnerella vaginalis [1]): active
